In US20110224252A1, “NOVEL IMIDAZOLE DERIVATIVES” (SYNGENTA CROP PROTECTION, INC., priority 2007, published 2011):

Tests used:
Format in all cases: in vivo
Uncinula necator = Uncinula necator / grape / preventive (action against powdery mildew on grape); details: Erysiphe necator, 168 h, spray, grape seedlings cv. Gutedel, assessed 7 days after inoculation, read-out: inhibit fungal infestation
Procedure: Uncinula necator/Grape/Preventive (Action Against Powdery Mildew on Grape) 5 weeks old grape seedlings cv. Gutedel are treated with the formulated test compound in a spray chamber. One day after application grape plants are inoculated by shaking plants infected with grape powdery mildew above the test plants. After an incubation period of 7 days at 24° C./22° C. and 70% r. h. under a light regime of 14/10 h (light/dark) the disease incidence is assessed.

Alternaria solani = Alternaria solani / tomato / preventive (action against Alternaria on tomato); details: 96 h, spray, tomato plants cv. Roter Gnom, assessed 4 days after inoculation, read-out: inhibit fungal infestation
Procedure: Alternaria solani/Tomato/Preventive (Action Against Alternaria on Tomato) 4 weeks old tomato plants cv. Roter Gnom are treated with the formulated test compound in a spray chamber. Two days after application tomato plants are inoculated by spraying a spore suspension on the test plants. After an incubation period of 4 days at 22° C./18° C. and 95% r. h. in a greenhouse the disease incidence is assessed.

Septoria tritici = Septoria tritici / wheat / preventive (action against Septoria leaf spot on wheat); details: Zymoseptoria tritici, spray, wheat plants cv. Riband, assessed 16-18 days after inoculation, read-out: inhibits fungal infestation
Procedure: Septoria tritici/Wheat/Preventive (Action Against Septoria Leaf Spot on Wheat) 2 weeks old wheat plants cv. Riband are treated with the formulated test compound in a spray chamber. One day after application wheat plants are inoculated by spraying a spore suspension (10^6 conidia/ml) on the test plants. After an incubation period of 1 day at 22° C./21° C. and 95% r. h. plants are kept at 22° C./21° C. and 70% r.h. in a greenhouse. The disease incidence is assessed 16-18 days after inoculation.

Botrytis cinerea = Botrytis cinerea / tomato / preventive (action against Botrytis on tomato); details: 72 h, spray, tomato plants cv. Roter Gnom, assessed 3 days after inoculation, read-out: inhibit fungal infestation
Procedure: Botrytis cinerea/Tomato/Preventive (Action Against Botrytis on Tomato) 4 weeks old tomato plants cv. Roter Gnom are treated with the formulated test compound in a spray chamber. Two days after application tomato plants are inoculated by spraying a spore suspension on the test plants. After an incubation period of 3 days at 20° C. and 95% r. h. in a greenhouse the disease incidence is assessed.

Puccinia recondita = Puccinia recondita / wheat / preventive (action against brown rust on wheat); details: 264 h, spray, wheat plants cv. Arina, assessed 11 days after inoculation, read-out: inhibit fungal infestation
Procedure: Puccinia recondita/Wheat/Preventive (Action Against Brown Rust on Wheat) 1 week old wheat plants cv. Arina are treated with the formulated test compound in a spray chamber. One day after application wheat plants are inoculated by spraying a spore suspension ([…] uredospores/ml) on the test plants. After an incubation period of 1 day at 20° C. and 95% r. h. plants are kept for 10 days 20° C./18° C. (day/night) and 60% r.h. in a greenhouse. The disease incidence is assessed 11 days after inoculation.

Measured: inhibition at 200 ppm

Clc1cnc(-n2c(Cl)nc(Cl)c2-c2ccc(Br)cc2)c(Cl)c1 [I.s.034, 2-[5-(4-Bromo-phenyl)-2,4-dichloro-imidazol-1-yl]-3,5-dichloro-pyridine]
not listed: Puccinia recondita
≥ 80%: all other assays above

Cc1nc(Cl)n(-c2ncc(Cl)cc2Cl)c1-c1ccc(Br)cc1 [I.s.035, 2-[5-(4-Bromo-phenyl)-2-chloro-4-methyl-imidazol-1-yl]-3,5-dichloro-pyridine]
not listed: Botrytis cinerea
≥ 80%: all other assays above

Cc1nc(Cl)n(-c2ncc(Cl)cc2Cl)c1-c1ccc(Cl)nc1 [I.s.210, 3,5-Dichloro-2-[2-chloro-5-(6-chloro-pyridin-3-yl)-4-methyl-imidazol-1-yl]-pyridine]
≥ 80%: Uncinula necator | Alternaria solani | Septoria tritici
